Measured values from patent US20230406885A1, “CYCLIC PEPTIDES FOR TRAPPING INTERLEUKIN-1 BETA” (MERCK SHARP & DOHME LLC, priority 2022, published 2023).
Where a SMILES comes first, the peptide text is derived from it. [ ]: non-standard residue; d: D form. Trp(4-Cl)(βS-Me) = C[C@@H](c1c[nH]c2cccc(Cl)c12)[C@H](N)C(=O)O; Trp(βS-Me,4-F) = C[C@@H](c1c[nH]c2cccc(F)c12)[C@H](N)C(=O)O; Bip(4'-COOH) = N[C@@H](Cc1ccc(-c2ccc(C(=O)O)cc2)cc1)C(=O)O; Phe(4-COOH) = N[C@@H](Cc1ccc(C(=O)O)cc1)C(=O)O; Phe(4-CH2NH2) = NCc1ccc(C[C@H](N)C(=O)O)cc1; Phe(3-NH2) = Nc1cccc(C[C@H](N)C(=O)O)c1; Phe(4-NH2) = Nc1ccc(C[C@H](N)C(=O)O)cc1; Pro(4R-NH2) = N[C@H]1CN[C@H](C(=O)O)C1; hTyr = N[C@@H](CCc1ccc(O)cc1)C(=O)O; h4Pal = N[C@@H](CCc1ccncc1)C(=O)O; 4Pal = N[C@@H](Cc1ccncc1)C(=O)O; dDab = NCC[C@@H](N)C(=O)O; Orn = NCCC[C@H](N)C(=O)O; dNMeA = CN[C@H](C)C(=O)O; Dap = NC[C@H](N)C(=O)O

Each molecule was assayed against T1, Recombinant human IL-1β (Homo sapiens, UniProt P01584) (assay: IL-6 assay in MRC5 cells: inhibition of IL-1β induced IL-6 secretion (AlphaLISA)). Conditions: inhibition of IL-1β induced IL-6 secretion in MRC5 cells; IL-1β pre-incubated 1 hour with compound; read-out: MRC5 IC50.
T1 construct: purchased BioLegend 579404
T1 sequence (P01584 117-269): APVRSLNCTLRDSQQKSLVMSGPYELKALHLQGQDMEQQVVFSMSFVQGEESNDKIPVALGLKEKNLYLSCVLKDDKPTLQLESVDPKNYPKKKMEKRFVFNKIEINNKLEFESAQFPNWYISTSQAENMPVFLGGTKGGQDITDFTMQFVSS
Assay type: cell-based
Summary of the method: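 IL-1β at 2×EC80 in seeding medium (EMEM, 0.025% BSA) preincubated 1 h at ambient temperature with compound, then 3000 MRC5 cells/well added and incubated overnight at 37 °C, 5% CO2. IL-6 in conditioned medium quantified by AlphaLISA; IC50 from 4-parameter logistic fit.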

Compound | IC50 [pM]
C[C@@H]1C(=O)NCC(=O)N[C@@H](Cc2ccc(-c3ccc(C(=O)O)cc3)cc2)C(=O)N[C@@H](CCCN)C(=O)N[C@@H](CO)C(=O)N[C@H](C)C(=O)N[C@@H](CCc2ccc(O)cc2)C(=O)N[C@@H](Cc2ccc(-c3ccc(C(=O)O)cc3)cc2)C(=O)N[C@@H](Cc2c[nH]c3ccccc23)C(=O)N[C@@H](Cc2ccc(C(=O)O)cc2)C(=O)NCC(=O)N2C[C@H](N)C[C@H]2C(=O)N[C@@H]([C@@H](C)c2c[nH]c3cccc(Cl)c23)C(=O)N[C@@H](CC(=O)O)C(=O)N1C [Example 49] (cyclo([Bip(4'-COOH)]W[Phe(4-COOH)]G[Pro(4R-NH2)][Trp(4-Cl)(βS-Me)]D[dNMeA]G[Bip(4'-COOH)][Orn]S[dA][hTyr])) | 402
C[C@@H]1C(=O)NCC(=O)N[C@@H](Cc2ccc(-c3ccc(C(=O)O)cc3)cc2)C(=O)N[C@@H](Cc2cccc(N)c2)C(=O)N[C@@H](CO)C(=O)N[C@H](C)C(=O)N[C@@H](CCc2ccc(O)cc2)C(=O)N[C@@H](Cc2ccc(-c3ccc(C(=O)O)cc3)cc2)C(=O)N[C@@H](Cc2c[nH]c3ccccc23)C(=O)N[C@@H](Cc2ccc(C(=O)O)cc2)C(=O)NCC(=O)N2C[C@H](N)C[C@H]2C(=O)N[C@@H]([C@@H](C)c2c[nH]c3cccc(Cl)c23)C(=O)N[C@@H](CC(=O)O)C(=O)N1C [Example 50] (cyclo([Bip(4'-COOH)]W[Phe(4-COOH)]G[Pro(4R-NH2)][Trp(4-Cl)(βS-Me)]D[dNMeA]G[Bip(4'-COOH)][Phe(3-NH2)]S[dA][hTyr])) | 520
C[C@@H]1C(=O)NCC(=O)N[C@@H](Cc2ccc(-c3ccc(C(=O)O)cc3)cc2)C(=O)N[C@@H](Cc2ccc(CN)cc2)C(=O)N[C@@H](CO)C(=O)N[C@H](C)C(=O)N[C@@H](CCc2ccc(O)cc2)C(=O)N[C@@H](Cc2ccc(-c3ccc(C(=O)O)cc3)cc2)C(=O)N[C@@H](Cc2c[nH]c3ccccc23)C(=O)N[C@@H](Cc2ccc(C(=O)O)cc2)C(=O)NCC(=O)N2C[C@H](N)C[C@H]2C(=O)N[C@@H]([C@@H](C)c2c[nH]c3cccc(Cl)c23)C(=O)N[C@@H](CC(=O)O)C(=O)N1C [Example 51] (cyclo([Bip(4'-COOH)]W[Phe(4-COOH)]G[Pro(4R-NH2)][Trp(4-Cl)(βS-Me)]D[dNMeA]G[Bip(4'-COOH)][Phe(4-CH2NH2)]S[dA][hTyr])) | 320
C[C@@H]1C(=O)NCC(=O)N[C@@H](Cc2ccc(-c3ccc(C(=O)O)cc3)cc2)C(=O)N[C@@H](Cc2ccc(N)cc2)C(=O)N[C@@H](CO)C(=O)N[C@H](C)C(=O)N[C@@H](CCc2ccc(O)cc2)C(=O)N[C@@H](Cc2ccc(-c3ccc(C(=O)O)cc3)cc2)C(=O)N[C@@H](Cc2c[nH]c3ccccc23)C(=O)N[C@@H](Cc2ccc(C(=O)O)cc2)C(=O)NCC(=O)N2C[C@H](N)C[C@H]2C(=O)N[C@@H]([C@@H](C)c2c[nH]c3cccc(Cl)c23)C(=O)N[C@@H](CC(=O)O)C(=O)N1C [Example 52] (cyclo([Bip(4'-COOH)]W[Phe(4-COOH)]G[Pro(4R-NH2)][Trp(4-Cl)(βS-Me)]D[dNMeA]G[Bip(4'-COOH)][Phe(4-NH2)]S[dA][hTyr])) | 454
C[C@@H]1C(=O)NCC(=O)N[C@@H](Cc2ccc(-c3ccc(C(=O)O)cc3)cc2)C(=O)N[C@@H](Cc2c[nH]c3ccccc23)C(=O)N[C@@H](CN)C(=O)N[C@H](C)C(=O)N[C@@H](CCc2ccc(O)cc2)C(=O)N[C@@H](Cc2ccc(-c3ccc(C(=O)O)cc3)cc2)C(=O)N[C@@H](Cc2c[nH]c3ccccc23)C(=O)N[C@@H](Cc2ccc(C(=O)O)cc2)C(=O)NCC(=O)N2C[C@H](N)C[C@H]2C(=O)N[C@@H]([C@@H](C)c2c[nH]c3cccc(Cl)c23)C(=O)N[C@@H](CC(=O)O)C(=O)N1C [Example 53] (cyclo([Bip(4'-COOH)]W[Phe(4-COOH)]G[Pro(4R-NH2)][Trp(4-Cl)(βS-Me)]D[dNMeA]G[Bip(4'-COOH)]W[Dap][dA][hTyr])) | 41.8
C[C@@H]1C(=O)NCC(=O)N[C@@H](Cc2ccc(-c3ccc(C(=O)O)cc3)cc2)C(=O)N[C@@H](Cc2c[nH]c3ccccc23)C(=O)NCC(=O)N[C@H](CCN)C(=O)N[C@@H](CCc2ccc(O)cc2)C(=O)N[C@@H](Cc2ccc(-c3ccc(C(=O)O)cc3)cc2)C(=O)N[C@@H](Cc2c[nH]c3ccccc23)C(=O)N[C@@H](Cc2ccc(C(=O)O)cc2)C(=O)NCC(=O)N2C[C@H](N)C[C@H]2C(=O)N[C@@H]([C@@H](C)c2c[nH]c3cccc(Cl)c23)C(=O)N[C@@H](CC(=O)O)C(=O)N1C [Example 54] (cyclo([Bip(4'-COOH)]W[Phe(4-COOH)]G[Pro(4R-NH2)][Trp(4-Cl)(βS-Me)]D[dNMeA]G[Bip(4'-COOH)]WG[dDab][hTyr])) | 69.2
C[C@@H]1C(=O)NCC(=O)N[C@@H](Cc2ccc(-c3ccc(C(=O)O)cc3)cc2)C(=O)N[C@@H](Cc2c[nH]c3ccccc23)C(=O)NCC(=O)N[C@H](CCN)C(=O)N[C@@H](CCc2ccc(O)cc2)C(=O)N[C@@H](Cc2ccc(-c3ccc(C(=O)O)cc3)cc2)C(=O)N[C@@H](Cc2c[nH]c3ccccc23)C(=O)N[C@@H](Cc2ccc(C(=O)O)cc2)C(=O)NCC(=O)N2C[C@H](N)C[C@H]2C(=O)N[C@@H]([C@@H](C)c2c[nH]c3cccc(Cl)c23)C(=O)N[C@@H](CCC(=O)O)C(=O)N1C [Example 55] (cyclo([Bip(4'-COOH)]W[Phe(4-COOH)]G[Pro(4R-NH2)][Trp(4-Cl)(βS-Me)]E[dNMeA]G[Bip(4'-COOH)]WG[dDab][hTyr])) | 49.3
C[C@@H]1C(=O)NCC(=O)N[C@@H](Cc2ccc(-c3ccc(C(=O)O)cc3)cc2)C(=O)N[C@@H](Cc2c[nH]c3ccccc23)C(=O)NCC(=O)N[C@H](CCN)C(=O)N[C@@H](CCc2ccc(O)cc2)C(=O)N[C@@H](Cc2ccc(-c3ccc(C(=O)O)cc3)cc2)C(=O)N[C@@H](Cc2c[nH]c3ccccc23)C(=O)N[C@@H](Cc2ccc(C(=O)O)cc2)C(=O)NCC(=O)N2C[C@H](N)C[C@H]2C(=O)N[C@@H]([C@@H](C)c2c[nH]c3cccc(Cl)c23)C(=O)N[C@@H](CC(N)=O)C(=O)N1C [Example 56] (cyclo([Bip(4'-COOH)]W[Phe(4-COOH)]G[Pro(4R-NH2)][Trp(4-Cl)(βS-Me)]N[dNMeA]G[Bip(4'-COOH)]WG[dDab][hTyr])) | 20.7
C[C@@H]1C(=O)NCC(=O)N[C@@H](Cc2ccc(-c3ccc(C(=O)O)cc3)cc2)C(=O)N[C@@H](Cc2c[nH]c3ccccc23)C(=O)NCC(=O)N[C@H](CCN)C(=O)N[C@@H](CCc2ccc(O)cc2)C(=O)N[C@@H](Cc2ccc(-c3ccc(C(=O)O)cc3)cc2)C(=O)N[C@@H](Cc2c[nH]c3ccccc23)C(=O)N[C@@H](Cc2ccc(C(=O)O)cc2)C(=O)NCC(=O)N2C[C@H](N)C[C@H]2C(=O)N[C@@H]([C@@H](C)c2c[nH]c3cccc(Cl)c23)C(=O)N[C@@H](CCC(N)=O)C(=O)N1C [Example 57] (cyclo([Bip(4'-COOH)]W[Phe(4-COOH)]G[Pro(4R-NH2)][Trp(4-Cl)(βS-Me)]Q[dNMeA]G[Bip(4'-COOH)]WG[dDab][hTyr])) | 87.3
CC(C)C[C@@H]1NC(=O)[C@H](CCCCN)NC(=O)[C@H](Cc2ccc(-c3ccc(C(=O)O)cc3)cc2)NC(=O)CNC(=O)[C@@H](C)N(C)C(=O)[C@H](C)NC(=O)[C@H]([C@@H](C)c2c[nH]c3cccc(F)c23)NC(=O)[C@@H]2C[C@@H](N)CN2C(=O)CNC(=O)[C@H](Cc2ccc(C(=O)O)cc2)NC(=O)[C@H](Cc2c[nH]c3ccccc23)NC(=O)[C@H](Cc2ccc(-c3ccc(C(=O)O)cc3)cc2)NC(=O)[C@H](CCc2ccc(O)cc2)NC(=O)[C@@H](C)NC1=O [Example 58] (cyclo([Bip(4'-COOH)]W[Phe(4-COOH)]G[Pro(4R-NH2)][Trp(βS-Me,4-F)]A[dNMeA]G[Bip(4'-COOH)]KL[dA][hTyr])) | 248
CC(C)C[C@@H]1NC(=O)[C@H](Cc2ccncc2)NC(=O)[C@H](Cc2ccc(-c3ccc(C(=O)O)cc3)cc2)NC(=O)CNC(=O)[C@@H](C)N(C)C(=O)[C@H](CC(=O)O)NC(=O)[C@H]([C@@H](C)c2c[nH]c3cccc(F)c23)NC(=O)[C@@H]2C[C@@H](N)CN2C(=O)CNC(=O)[C@H](Cc2ccc(C(=O)O)cc2)NC(=O)[C@H](Cc2c[nH]c3ccccc23)NC(=O)[C@H](Cc2ccc(-c3ccc(C(=O)O)cc3)cc2)NC(=O)[C@H](CCc2ccc(O)cc2)NC(=O)[C@@H](C)NC1=O [Example 59] (cyclo([Bip(4'-COOH)]W[Phe(4-COOH)]G[Pro(4R-NH2)][Trp(βS-Me,4-F)]D[dNMeA]G[Bip(4'-COOH)][4Pal]L[dA][hTyr])) | 36.2
CC(C)C[C@@H]1NC(=O)[C@H](Cc2ccccc2)NC(=O)[C@H](Cc2ccc(-c3ccc(C(=O)O)cc3)cc2)NC(=O)CNC(=O)[C@@H](C)N(C)C(=O)[C@H](CC(=O)O)NC(=O)[C@H]([C@@H](C)c2c[nH]c3cccc(F)c23)NC(=O)[C@@H]2C[C@@H](N)CN2C(=O)CNC(=O)[C@H](Cc2ccc(C(=O)O)cc2)NC(=O)[C@H](Cc2c[nH]c3ccccc23)NC(=O)[C@H](Cc2ccc(-c3ccc(C(=O)O)cc3)cc2)NC(=O)[C@H](CCc2ccc(O)cc2)NC(=O)[C@@H](C)NC1=O [Example 60] (cyclo([Bip(4'-COOH)]W[Phe(4-COOH)]G[Pro(4R-NH2)][Trp(βS-Me,4-F)]D[dNMeA]G[Bip(4'-COOH)]FL[dA][hTyr])) | 68.9
CC(C)C[C@@H]1NC(=O)[C@H](CCc2ccncc2)NC(=O)[C@H](Cc2ccc(-c3ccc(C(=O)O)cc3)cc2)NC(=O)CNC(=O)[C@@H](C)N(C)C(=O)[C@H](CC(=O)O)NC(=O)[C@H]([C@@H](C)c2c[nH]c3cccc(F)c23)NC(=O)[C@@H]2C[C@@H](N)CN2C(=O)CNC(=O)[C@H](Cc2ccc(C(=O)O)cc2)NC(=O)[C@H](Cc2c[nH]c3ccccc23)NC(=O)[C@H](Cc2ccc(-c3ccc(C(=O)O)cc3)cc2)NC(=O)[C@H](CCc2ccc(O)cc2)NC(=O)[C@@H](C)NC1=O [Example 61] (cyclo([Bip(4'-COOH)]W[Phe(4-COOH)]G[Pro(4R-NH2)][Trp(βS-Me,4-F)]D[dNMeA]G[Bip(4'-COOH)][h4Pal]L[dA][hTyr])) | 312
